Laboratory results from patent EP0354042A2, “Aminobenzoic-acid derivatives to reduce side effects induced by an administration of immuno-suppressant” (priority 1988, dated 1990).

Assays:
[1] = test system: Bacillus subtilis H17; experiment: Mutagenicity Rec-assay, recombination repair proficient strain
Procedure: (§1) First, mutagenecity was studied with Rec-assay. […] The present substance was dissolved with sterlized water, 0.05 ml of the solution was absorbed by a round filter paper having a diameter of 8 mm and immediately the filter paper was laid on the medium (B-II agar) in a manner to cover each of the satrt point of the streak. Then, the mdium was cultured for 16 hours at a temperature of 37°C and measured growth inhibited area. Kanamycin was used as a negative control and mitomycin as a positive control.

[2] = test system: Jcl:ICR mice; experiment: Acute toxicity (LD50, Litchfield-Wilcoxon); type: in vivo; details: observed 7 days; for LD₅₀ Value Intraperitoneal: in physiological saline solution; for LD₅₀ Value Oral: oral by stomach sonde, in distilled water
Procedure: The acute toxicity was studied with Jcl:ICR mice through intraperitoneal route and oral route. For intraperitoneal route, the present substance was dissolved in a physiological saline solution and a predetermined dose of the substance was administered with an injector to the cavity. For oral route, the present substance was dissolved in a distilled water and administered forcibly through a stomach sonde.
After the administration, observation of toxicopathic symptoms of the mice were continued for 7 days and based on time to time death rates of the mice, LD₅₀ values were calculated. Both surviving and dead mice were anatomized and observed certain organs.

[3] = test system: TA100 of Salmonella typhimurium; experiment: Reversion assay (reversion colony test) TA100; type: cell-based
Procedure: (§2) In addition, a reversion assay was performed using TA98 and TA100 of Salmonella typhimurium (both are histidine-requiring bacteria).
(§3) 10% by volume of 0.5 mM bithion solution containing 0.5 mM histidine was added to a soft agar solution (prepared with 6g of NaCl, 6g of agar and 1,000 ml of distilled water). Then, 0.1 ml of a solution containing 1 x 10⁸ of the bacteria and 0.1 ml of a solution of the present substance were added to 2 ml of the soft agar solution, mixed well and obtained soft agar solution was multilayered on a minimal agar medium. The medium layered was cultured at 37°C for 2 days and number of reversion colonies was counted. Furylfuramide (AF2) was used as a positive control.

[4] = test system: TA98 of Salmonella typhimurium; experiment: Reversion assay (reversion colony test) TA98; type: cell-based
Procedure: as §2, §3

[5] = test system: Wistar male rats; experiment: Serum biochemical test, total bilirubin (liver function) of rats given CsA with the present substance; type: in vivo; details: CsA 25 mg/kg/day i.p. 3 weeks plus present substance 300 mg/kg/day orally
Procedure: (§4) Various clearance tests and a saccharide tolerance test were performed after completion of the administrations. Then, after sacrificing the rats, their blood was taken for serum biochemical and general blood tests.

[6] = test system: Wistar male rats; experiment: Saccharide tolerance test (pancreas function) of rats given CsA with the present substance; type: in vivo; details: CsA 25 mg/kg/day i.p. 3 weeks plus present substance 300 mg/kg/day orally
Procedure: as §4

[7] = Body weight of rats given CsA with the present substance; type: in vivo, Wistar male rats; details: at completion of the test; CsA 25 mg/kg/day i.p. 3 weeks plus present substance 300 mg/kg/day orally
Procedure: as §4

[8] = test system: Wistar male rats; experiment: Kidney function (inulin clearance, serum creatinine) of rats given CsA with the present substance; type: in vivo; details: CsA 25 mg/kg/day i.p. 3 weeks plus present substance 300 mg/kg/day orally
Procedure: as §4

[9] = test system: human lymphocyte; experiment: Mixed lymphocyte culture, 3H-thymidine uptake (proliferation of lymphocytes); type: cell-based; details: CsA 0.1 µg/ml plus present substance 100 µg/ml, cultured 6 days;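 note: percent suppression of proliferation derived from uptake with CsA alone versus CsA plus substance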
Procedure: A mixture of 50 µl of human lymphocyte (1.6 x 10⁶/ml) with 50 µl of the lymphocytes treated with mitomycin C (MMC) (1.7 x 10⁶/ml) was cultured for 6 days and an uptake of ³H-thymidine, an index of proliferation of lymphocyte, was studied. The medium used for culture comprised bovine fetal serum (10% in quantity) and RPMI 1640 (90% in quantity). […] From the calculated ratio, the effects of the present substance on immuno function were studied.

[10] = test system: Bacillus subtilis M45; experiment: Mutagenicity Rec-assay, recombination repair deficient strain; details: for Growth Inhibited Area M45 - H17: difference between strains
Procedure: as §1

[11] = 5,000 µg/disk, 16 hours at 37°C
[12] = 5,000 µg/disk, 37°C for 2 days, Drug-free Control 149
[13] = 5,000 µg/disk, 37°C for 2 days, Drug-free Control 13

O=C(O)c1ccc(NC2O[C@H](CO)[C@H](O)[C@H](O)[C@H]2O)cc1 (stereo partly drawn) [Compound 14, p-Aminobenzoic acid-N-D-galactoside]
Growth Inhibited Area H17 ([1]; 500 µg/disk, 16 hours at 37°C): 0 mm
Growth Inhibited Area H17 [1, 11]: 0 mm
LD₅₀ Value Intraperitoneal [2]: 12000 mg/kg
LD₅₀ Value Oral [2]: 14550 mg/kg
No. of Reversion Colony TA100 [3, 12]: 51 n/plate
No. of Reversion Colony TA98 [4, 13]: 7 n/plate
TBI (seerum total bilirubin value) [5]: 0.33 mg/dL
Blood sugar value measured 10 minutes after the test [6]: 584 mg/dL
Insuline Value 10 Min.After The Test [6]: 6.10 mµ/ml
Insuline Value Before The Test [6]: 4.13 mµ/ml
Body Weight [7]: 215 g
Kidney Function Inulin Clearance [8]: 1.88 mL/min
Kidney Function Serum Creatinine [8]: 0.66 mg/dL
Depressing Ratio [9]: 26%
Growth Inhibited Area M45 ([10]; 500 µg/disk, 16 hours at 37°C): 0 mm
Growth Inhibited Area M45 - H17 ([10]; 500 µg/disk): 0 mm
Growth Inhibited Area M45 [10, 11]: 0 mm
Growth Inhibited Area M45 - H17 ([10]; 5,000 µg/disk): 0 mm

O=C([O-])c1ccccc1NC1OCC(O)C(O)C1O.[Na+] [Compound 4, o-Aminobenzoic acid-N-L-arabinoside]
Growth Inhibited Area H17 ([1]; 500 µg/disk, 16 hours at 37°C): 0 mm
Growth Inhibited Area H17 [1, 11]: 4 mm
LD₅₀ Value Intraperitoneal [2]: 7480 mg/kg
LD₅₀ Value Oral [2]: 6350 mg/kg
No. of Reversion Colony TA100 [3, 12]: 59 n/plate
No. of Reversion Colony TA98 [4, 13]: 4 n/plate
TBI (seerum total bilirubin value) [5]: 0.37 mg/dL
Blood sugar value measured 10 minutes after the test [6]: 591 mg/dL
Insuline Value 10 Min.After The Test [6]: 6.22 mµ/ml
Insuline Value Before The Test [6]: 3.89 mµ/ml
Body Weight [7]: 218 g
Kidney Function Inulin Clearance [8]: 1.78 mL/min
Kidney Function Serum Creatinine [8]: 0.67 mg/dL
Depressing Ratio [9]: 26%
Growth Inhibited Area M45 ([10]; 500 µg/disk, 16 hours at 37°C): 0 mm
Growth Inhibited Area M45 - H17 ([10]; 500 µg/disk): 0 mm
Growth Inhibited Area M45 [10, 11]: 8 mm
Growth Inhibited Area M45 - H17 ([10]; 5,000 µg/disk): 4 mm

O=C([O-])c1ccccc1NC1O[C@H](CO)[C@@H](O)[C@H](O)[C@H]1O.[Na+] (stereo partly drawn) [Compound 12, o-Aminobenzoic acid-N-D-glucoside]
Growth Inhibited Area H17 ([1]; 500 µg/disk, 16 hours at 37°C): 0 mm
Growth Inhibited Area H17 [1, 11]: 2 mm
LD₅₀ Value Intraperitoneal [2]: 13380 mg/kg
LD₅₀ Value Oral [2]: 8960 mg/kg
No. of Reversion Colony TA100 [3, 12]: 151 n/plate
No. of Reversion Colony TA98 [4, 13]: 5 n/plate
TBI (seerum total bilirubin value) [5]: 0.36 mg/dL
Blood sugar value measured 10 minutes after the test [6]: 589 mg/dL
Insuline Value 10 Min.After The Test [6]: 6.12 mµ/ml
Insuline Value Before The Test [6]: 4.11 mµ/ml
Body Weight [7]: 232 g
Kidney Function Inulin Clearance [8]: 1.88 mL/min
Kidney Function Serum Creatinine [8]: 0.64 mg/dL
Depressing Ratio [9]: 27%
Growth Inhibited Area M45 ([10]; 500 µg/disk, 16 hours at 37°C): 0 mm
Growth Inhibited Area M45 - H17 ([10]; 500 µg/disk): 0 mm
Growth Inhibited Area M45 [10, 11]: 5 mm
Growth Inhibited Area M45 - H17 ([10]; 5,000 µg/disk): 3 mm

O=C(O)c1cccc(NC2O[C@H](CO)[C@@H](O)[C@H](O)[C@@H]2O)c1 (stereo partly drawn) [Compound 24, m-Aminobenzoic acid-N-D-mannoside]
Growth Inhibited Area H17 ([1]; 500 µg/disk, 16 hours at 37°C): 0 mm
Growth Inhibited Area H17 [1, 11]: 1 mm
LD₅₀ Value Intraperitoneal [2]: > 10000 mg/kg
LD₅₀ Value Oral [2]: > 10000 mg/kg
No. of Reversion Colony TA100 [3, 12]: 90 n/plate
No. of Reversion Colony TA98 [4, 13]: 6 n/plate
TBI (seerum total bilirubin value) [5]: 0.30 mg/dL
Blood sugar value measured 10 minutes after the test [6]: 578 mg/dL
Insuline Value 10 Min.After The Test [6]: 6.37 mµ/ml
Insuline Value Before The Test [6]: 4.40 mµ/ml
Body Weight [7]: 240 g
Kidney Function Inulin Clearance [8]: 2.00 mL/min
Kidney Function Serum Creatinine [8]: 0.64 mg/dL
Depressing Ratio [9]: 27%
Growth Inhibited Area M45 ([10]; 500 µg/disk, 16 hours at 37°C): 0 mm
Growth Inhibited Area M45 - H17 ([10]; 500 µg/disk): 0 mm
Growth Inhibited Area M45 [10, 11]: 7 mm
Growth Inhibited Area M45 - H17 ([10]; 5,000 µg/disk): 6 mm

C[C@@H]1OC(Nc2ccc(C(=O)O)cc2)[C@H](O)[C@H](O)[C@H]1O (stereo partly drawn) [Compound 18, p-Aminobenzoic acid-N-L-rhamnoside]
Growth Inhibited Area H17 ([1]; 500 µg/disk, 16 hours at 37°C): 0 mm
Growth Inhibited Area H17 [1, 11]: 0 mm
LD₅₀ Value Intraperitoneal [2]: 15000 mg/kg
LD₅₀ Value Oral [2]: 12800 mg/kg
No. of Reversion Colony TA100 [3, 12]: 73 n/plate
No. of Reversion Colony TA98 [4, 13]: 4 n/plate
TBI (seerum total bilirubin value) [5]: 0.29 mg/dL
Blood sugar value measured 10 minutes after the test [6]: 573 mg/dL
Insuline Value 10 Min.After The Test [6]: 6.44 mµ/ml
Insuline Value Before The Test [6]: 4.30 mµ/ml
Body Weight [7]: 238 g
Kidney Function Inulin Clearance [8]: 1.97 mL/min
Kidney Function Serum Creatinine [8]: 0.64 mg/dL
Depressing Ratio [9]: 27%
Growth Inhibited Area M45 ([10]; 500 µg/disk, 16 hours at 37°C): 0 mm
Growth Inhibited Area M45 - H17 ([10]; 500 µg/disk): 0 mm
Growth Inhibited Area M45 [10, 11]: 0 mm
Growth Inhibited Area M45 - H17 ([10]; 5,000 µg/disk): 0 mm

NC(=O)/C(=C\c1ccc([N+](=O)[O-])o1)c1ccco1 [Furylfuramide (AF2), Furylfuramide, reference compound]
No. of Reversion Colony TA100 ([3]; 0.1 µg/disk, positive control): 911 n/plate
No. of Reversion Colony TA98 ([4]; 0.1 µg/disk, positive control): 167 n/plate

O=C(O)c1ccc(NC2O[C@H](CO)[C@@H](O)[C@H](O)[C@@H]2O)cc1 (stereo partly drawn) [Compound 22, p-Aminobenzoic acid-N-D-mannoside]
Growth Inhibited Area H17 ([1]; 500 µg/disk, 16 hours at 37°C): 0 mm
Growth Inhibited Area H17 [1, 11]: 0 mm
LD₅₀ Value Intraperitoneal [2]: > 10000 mg/kg
LD₅₀ Value Oral [2]: >10000 mg/kg
No. of Reversion Colony TA100 [3, 12]: 138 n/plate
No. of Reversion Colony TA98 [4, 13]: 5 n/plate
TBI (seerum total bilirubin value) [5]: 0.27 mg/dL
Blood sugar value measured 10 minutes after the test [6]: 569 mg/dL
Insuline Value 10 Min.After The Test [6]: 6.50 mµ/ml
Insuline Value Before The Test [6]: 4.45 mµ/ml
Body Weight [7]: 245 g
Kidney Function Inulin Clearance [8]: 2.05 mL/min
Kidney Function Serum Creatinine [8]: 0.63 mg/dL
Depressing Ratio [9]: 28%
Growth Inhibited Area M45 ([10]; 500 µg/disk, 16 hours at 37°C): 0 mm
Growth Inhibited Area M45 - H17 ([10]; 500 µg/disk): 0 mm
Growth Inhibited Area M45 [10, 11]: 0 mm
Growth Inhibited Area M45 - H17 ([10]; 5,000 µg/disk): 0 mm

NC[C@H]1O[C@H](O[C@H]2[C@H](O)[C@@H](O[C@H]3O[C@H](CO)[C@@H](O)[C@H](N)[C@H]3O)[C@H](N)C[C@@H]2N)[C@H](O)[C@@H](O)[C@@H]1O [Kanamycin, reference compound]
Growth Inhibited Area H17 ([1]; Bacillus subtilis, 16 h, 10 µg/disk, pH 7): 4 mm
Growth Inhibited Area M45 ([10]; 10 µg/disk, negative control): 5 mm
Growth Inhibited Area M45 - H17 ([10]; 10 µg/disk, negative control): 1 mm
